Here are results for one molecule from paper PMC10818589 (2024).

SMILES strings stand for the structures.

The assay has as its system d(5′-CGCGAATTCGCG-3′)2 (DNA, duplex) CGCGAATTCGCG
The assay can be described thus: ethidium bromide displacement, fluorescence quenching, double-log plot. The following applies: phosphate buffer 100 mM (cation not given); pH 7.0, 298 K; 20 μM duplex saturated with EtBr (5.07 μM), displaced; compound slowly decomposes in water; apparent.

Take `[Ru+2].[Ru+2].[Ru+2].[Ru+2].[Ru+2].[Ru+2].[Ru+2].[Ru+2].[Ru+2].[Ru+2].[Ru+2].[Ru+2].c1cc2ccc1-c1ccc(cc1)-c1ccc(cc1)-c1ccc(cc1)-c1ccc(cc1)-c1ccc(cc1)-c1ccc(cc1)-c1ccc(cc1)-c1ccc(cc1)-c1ccc(cc1)-c1ccc(cc1)-c1ccc-2cc1.c1cc[cH-]c1.c1cc[cH-]c1.c1cc[cH-]c1.c1cc[cH-]c1.c1cc[cH-]c1.c1cc[cH-]c1.c1cc[cH-]c1.c1cc[cH-]c1.c1cc[cH-]c1.c1cc[cH-]c1.c1cc[cH-]c1.c1cc[cH-]c1`: the Kb was 3.162 × 10^5 ± 0.001 M^-1.
